Legend:
[1] = molecular target: T1, Receptor-type tyrosine-protein kinase FLT3 (Homo sapiens, UniProt P36888); assay: Inhibition of human FLT3 using EAIYAAPFAKKK peptide substrate
T1 sequence (P36888 whole entry): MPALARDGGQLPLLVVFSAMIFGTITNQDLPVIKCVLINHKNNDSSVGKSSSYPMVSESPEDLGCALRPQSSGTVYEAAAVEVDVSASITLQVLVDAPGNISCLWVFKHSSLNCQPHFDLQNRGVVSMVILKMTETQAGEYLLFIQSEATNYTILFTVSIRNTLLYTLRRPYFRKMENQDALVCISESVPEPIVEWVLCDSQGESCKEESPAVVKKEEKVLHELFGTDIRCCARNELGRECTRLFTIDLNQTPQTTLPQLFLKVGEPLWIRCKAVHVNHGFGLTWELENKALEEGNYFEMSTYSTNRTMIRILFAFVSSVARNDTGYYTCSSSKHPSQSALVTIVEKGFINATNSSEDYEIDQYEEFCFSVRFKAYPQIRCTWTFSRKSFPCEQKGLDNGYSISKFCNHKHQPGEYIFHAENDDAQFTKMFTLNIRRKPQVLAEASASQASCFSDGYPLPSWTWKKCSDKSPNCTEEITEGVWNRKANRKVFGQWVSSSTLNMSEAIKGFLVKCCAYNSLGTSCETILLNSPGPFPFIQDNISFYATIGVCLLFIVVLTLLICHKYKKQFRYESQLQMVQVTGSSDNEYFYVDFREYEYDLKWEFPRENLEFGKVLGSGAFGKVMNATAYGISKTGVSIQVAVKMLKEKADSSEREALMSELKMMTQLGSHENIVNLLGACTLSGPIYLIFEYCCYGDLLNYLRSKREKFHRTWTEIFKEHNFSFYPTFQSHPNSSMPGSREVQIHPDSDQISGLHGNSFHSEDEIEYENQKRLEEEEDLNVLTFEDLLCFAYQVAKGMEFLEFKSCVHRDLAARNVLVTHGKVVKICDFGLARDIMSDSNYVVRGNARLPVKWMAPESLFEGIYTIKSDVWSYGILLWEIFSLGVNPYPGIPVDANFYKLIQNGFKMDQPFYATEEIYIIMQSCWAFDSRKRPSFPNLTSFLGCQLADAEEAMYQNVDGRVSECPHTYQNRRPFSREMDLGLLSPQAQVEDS

[2] = molecular target: T2, Discoidin domain-containing receptor 2 (Homo sapiens, UniProt Q16832); assay: Inhibition of human DDR2 using KKSRGDYMTMQIG peptide substrate
T2 sequence (Q16832 whole entry): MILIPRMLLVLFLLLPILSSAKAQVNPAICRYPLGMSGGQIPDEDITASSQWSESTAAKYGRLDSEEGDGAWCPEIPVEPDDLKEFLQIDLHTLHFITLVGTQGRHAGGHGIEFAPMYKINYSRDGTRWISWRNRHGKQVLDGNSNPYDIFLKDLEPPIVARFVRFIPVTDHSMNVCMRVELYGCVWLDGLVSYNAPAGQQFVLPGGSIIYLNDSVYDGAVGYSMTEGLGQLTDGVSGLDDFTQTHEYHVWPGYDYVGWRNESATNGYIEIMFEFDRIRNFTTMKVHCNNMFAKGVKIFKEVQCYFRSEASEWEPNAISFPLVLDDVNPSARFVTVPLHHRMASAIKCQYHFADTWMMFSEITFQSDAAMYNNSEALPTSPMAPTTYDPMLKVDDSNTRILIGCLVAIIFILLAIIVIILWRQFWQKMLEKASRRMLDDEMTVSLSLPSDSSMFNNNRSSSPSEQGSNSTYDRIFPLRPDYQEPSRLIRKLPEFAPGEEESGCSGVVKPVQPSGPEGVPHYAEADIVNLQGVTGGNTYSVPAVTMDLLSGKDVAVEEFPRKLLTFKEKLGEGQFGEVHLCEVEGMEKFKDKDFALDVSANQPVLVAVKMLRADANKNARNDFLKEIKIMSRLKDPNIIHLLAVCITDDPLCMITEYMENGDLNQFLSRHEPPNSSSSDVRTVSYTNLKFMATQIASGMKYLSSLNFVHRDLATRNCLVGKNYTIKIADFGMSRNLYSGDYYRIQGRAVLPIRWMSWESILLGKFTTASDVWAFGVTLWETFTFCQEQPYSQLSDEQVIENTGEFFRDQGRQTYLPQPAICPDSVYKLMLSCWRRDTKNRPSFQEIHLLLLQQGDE

[3] = molecular target: Tyrosine-protein kinase Lck (Homo sapiens, UniProt P06239); assay: Inhibition of human LCK using poly[Glu:Tyr] (4:1) peptide substrate
[4] = molecular target: T3, Mast/stem cell growth factor receptor Kit (Homo sapiens, UniProt P10721); assay: Binding affinity to human c-Kit
[5] = molecular target: T4, Platelet-derived growth factor receptor beta (Homo sapiens, UniProt P09619); assay: Binding affinity to human PDGFRbeata
[6] = molecular target: T3, Mast/stem cell growth factor receptor Kit; assay: Inhibition of human c-Kit using poly[Glu:Tyr] (4:1) peptide substrate
[7] = molecular target: T2, Discoidin domain-containing receptor 2
Description: Binding affinity to human DDR2

[8] = molecular target: Mast/stem cell growth factor receptor Kit (Homo sapiens, UniProt P10721, V654A); assay: Inhibition of human c-Kit V654A mutant using poly[Glu:Tyr] (4:1) peptide substrate
[9] = molecular target: T1, Receptor-type tyrosine-protein kinase FLT3; assay: Binding affinity to human FLT3
[10] = molecular target: Mast/stem cell growth factor receptor Kit (Homo sapiens, UniProt P10721, T670I); assay: Inhibition of human c-Kit T670I mutant using poly[Glu:Tyr] (4:1) peptide substrate
[11] = molecular target: T4, Platelet-derived growth factor receptor beta; assay: Inhibition of human PDGFRbeta using poly[Glu:Tyr] (4:1) peptide substrate

T3 sequence (P10721 whole entry): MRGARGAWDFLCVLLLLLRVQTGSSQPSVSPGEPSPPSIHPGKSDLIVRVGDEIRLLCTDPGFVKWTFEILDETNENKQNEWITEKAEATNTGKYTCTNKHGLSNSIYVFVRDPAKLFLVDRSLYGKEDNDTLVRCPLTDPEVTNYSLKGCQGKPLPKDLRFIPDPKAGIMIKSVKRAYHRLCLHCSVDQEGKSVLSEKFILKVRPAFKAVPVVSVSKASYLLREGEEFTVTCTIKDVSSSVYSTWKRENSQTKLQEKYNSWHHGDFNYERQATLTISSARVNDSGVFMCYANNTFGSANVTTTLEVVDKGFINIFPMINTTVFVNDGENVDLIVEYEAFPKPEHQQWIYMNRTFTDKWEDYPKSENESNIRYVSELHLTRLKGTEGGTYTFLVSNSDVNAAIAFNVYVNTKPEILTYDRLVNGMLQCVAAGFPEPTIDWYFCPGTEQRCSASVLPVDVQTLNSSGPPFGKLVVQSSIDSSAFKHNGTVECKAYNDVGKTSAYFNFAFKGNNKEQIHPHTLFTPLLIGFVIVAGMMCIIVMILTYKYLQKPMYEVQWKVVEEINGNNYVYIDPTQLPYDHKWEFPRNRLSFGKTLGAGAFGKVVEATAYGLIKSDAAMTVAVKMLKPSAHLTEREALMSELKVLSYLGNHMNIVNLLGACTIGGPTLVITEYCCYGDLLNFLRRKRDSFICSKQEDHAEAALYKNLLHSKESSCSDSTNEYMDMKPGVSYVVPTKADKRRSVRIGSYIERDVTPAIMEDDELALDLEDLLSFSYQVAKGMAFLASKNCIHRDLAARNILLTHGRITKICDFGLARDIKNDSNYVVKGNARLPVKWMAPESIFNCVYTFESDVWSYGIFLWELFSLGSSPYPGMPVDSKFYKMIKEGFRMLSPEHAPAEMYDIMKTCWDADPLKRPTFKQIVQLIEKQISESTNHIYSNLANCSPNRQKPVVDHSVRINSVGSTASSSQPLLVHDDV
Tyrosine-protein kinase Lck, sequence (P06239 whole entry): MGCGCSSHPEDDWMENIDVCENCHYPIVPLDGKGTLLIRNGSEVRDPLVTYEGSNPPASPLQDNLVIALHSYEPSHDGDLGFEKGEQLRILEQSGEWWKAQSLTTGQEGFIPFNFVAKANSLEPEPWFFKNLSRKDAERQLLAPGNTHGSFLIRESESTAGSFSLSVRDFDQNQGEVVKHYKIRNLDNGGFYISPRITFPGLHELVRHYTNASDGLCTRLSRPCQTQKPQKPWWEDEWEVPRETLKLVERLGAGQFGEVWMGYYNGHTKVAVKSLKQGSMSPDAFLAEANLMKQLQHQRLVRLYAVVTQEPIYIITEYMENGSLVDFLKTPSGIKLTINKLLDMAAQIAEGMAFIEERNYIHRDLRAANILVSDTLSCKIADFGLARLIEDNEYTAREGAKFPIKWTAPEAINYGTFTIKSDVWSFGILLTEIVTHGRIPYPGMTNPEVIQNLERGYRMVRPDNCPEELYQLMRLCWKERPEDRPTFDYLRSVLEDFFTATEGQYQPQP
Mast/stem cell growth factor receptor Kit (Homo sapiens, UniProt P10721, T670I), sequence (P10721 26-976 T670I limits assumed): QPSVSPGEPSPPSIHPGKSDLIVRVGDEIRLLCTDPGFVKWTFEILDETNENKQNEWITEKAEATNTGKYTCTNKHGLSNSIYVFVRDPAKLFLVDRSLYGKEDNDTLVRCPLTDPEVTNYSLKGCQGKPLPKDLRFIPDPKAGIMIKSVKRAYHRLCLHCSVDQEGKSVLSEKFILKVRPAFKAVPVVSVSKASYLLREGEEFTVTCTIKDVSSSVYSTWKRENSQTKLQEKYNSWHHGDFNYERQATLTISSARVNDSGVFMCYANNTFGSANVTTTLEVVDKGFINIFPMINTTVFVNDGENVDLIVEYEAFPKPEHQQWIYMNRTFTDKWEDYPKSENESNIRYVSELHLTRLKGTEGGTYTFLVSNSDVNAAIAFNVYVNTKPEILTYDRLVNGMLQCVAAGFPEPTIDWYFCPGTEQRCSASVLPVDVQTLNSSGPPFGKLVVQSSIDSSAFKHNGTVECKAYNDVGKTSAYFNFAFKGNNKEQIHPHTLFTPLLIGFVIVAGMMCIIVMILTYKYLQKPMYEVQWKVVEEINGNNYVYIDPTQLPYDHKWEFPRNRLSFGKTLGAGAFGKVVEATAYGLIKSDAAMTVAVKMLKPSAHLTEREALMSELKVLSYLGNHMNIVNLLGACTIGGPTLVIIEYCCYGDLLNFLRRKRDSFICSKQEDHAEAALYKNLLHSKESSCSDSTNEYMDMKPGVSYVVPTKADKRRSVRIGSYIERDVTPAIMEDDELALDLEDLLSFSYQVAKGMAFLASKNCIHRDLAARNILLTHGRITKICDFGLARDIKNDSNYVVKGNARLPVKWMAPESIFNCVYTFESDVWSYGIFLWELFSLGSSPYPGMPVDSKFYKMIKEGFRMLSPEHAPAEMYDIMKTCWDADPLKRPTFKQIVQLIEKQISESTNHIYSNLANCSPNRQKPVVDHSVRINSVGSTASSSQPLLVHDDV
Mast/stem cell growth factor receptor Kit (Homo sapiens, UniProt P10721, V654A), sequence (P10721 26-976 V654A limits assumed): as the sequence (P10721 26-976 T670I limits assumed) above, with V629A, I645T counted along it
T4 sequence (P09619 whole entry): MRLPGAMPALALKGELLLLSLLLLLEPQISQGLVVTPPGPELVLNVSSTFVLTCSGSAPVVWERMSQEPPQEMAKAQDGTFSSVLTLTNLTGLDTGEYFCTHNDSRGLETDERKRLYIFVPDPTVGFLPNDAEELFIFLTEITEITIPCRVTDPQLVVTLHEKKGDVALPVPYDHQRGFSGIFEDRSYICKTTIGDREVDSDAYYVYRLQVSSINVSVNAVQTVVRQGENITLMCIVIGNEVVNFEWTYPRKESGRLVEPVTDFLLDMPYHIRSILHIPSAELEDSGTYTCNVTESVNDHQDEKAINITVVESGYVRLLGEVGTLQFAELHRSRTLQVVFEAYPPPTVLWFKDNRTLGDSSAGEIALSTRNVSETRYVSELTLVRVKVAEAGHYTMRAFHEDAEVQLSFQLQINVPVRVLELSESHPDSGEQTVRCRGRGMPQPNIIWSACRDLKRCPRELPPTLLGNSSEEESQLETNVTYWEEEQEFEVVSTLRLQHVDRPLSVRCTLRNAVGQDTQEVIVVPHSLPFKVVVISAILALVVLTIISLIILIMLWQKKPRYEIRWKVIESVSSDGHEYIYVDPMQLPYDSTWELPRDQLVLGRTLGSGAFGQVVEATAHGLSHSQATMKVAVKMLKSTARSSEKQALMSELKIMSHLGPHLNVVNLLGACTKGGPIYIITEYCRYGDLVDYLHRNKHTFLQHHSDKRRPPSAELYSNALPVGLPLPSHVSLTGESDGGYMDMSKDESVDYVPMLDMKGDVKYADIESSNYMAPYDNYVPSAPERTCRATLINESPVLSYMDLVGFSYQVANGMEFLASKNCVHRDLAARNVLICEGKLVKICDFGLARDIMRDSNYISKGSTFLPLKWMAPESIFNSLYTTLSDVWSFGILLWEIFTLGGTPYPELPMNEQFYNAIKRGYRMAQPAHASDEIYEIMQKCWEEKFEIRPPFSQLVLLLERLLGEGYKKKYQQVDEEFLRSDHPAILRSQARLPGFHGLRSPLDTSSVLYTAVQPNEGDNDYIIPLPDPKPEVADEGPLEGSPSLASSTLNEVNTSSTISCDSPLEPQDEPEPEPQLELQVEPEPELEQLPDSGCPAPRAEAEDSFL

| IC50 [1] [nM] | IC50 [2] [nM] | IC50 [3] [nM] | Kd [4] [nM] | Kd [5] [nM] | IC50 [6] [nM] | Kd [7] [nM] | IC50 [8] [nM] | Kd [9] [nM] | IC50 [10] [nM] | IC50 [11] [nM] | Compound |
| --- | --- | --- | --- | --- | --- | --- | --- | --- | --- | --- | --- |
| 118 | 179 | 11100 | 3.5 | 8.5 | 9.96 | 14 | > 400 | 58 | > 1000 | > 5000 | Cc1cn(-c2cc(F)cc(NC(=O)c3ccc(C)c(Nc4nccc(-c5cccnc5)n4)c3)c2)cn1 |
| 882 | 17.2 | 1450 | 14 | 12 | 54.9 | 5.6 | > 1000 | 1200 | > 1000 | 768 | Cc1cc(NC(=O)c2ccc(C)c(Nc3nccc(-c4cccnc4)n3)c2)cc(-n2cnc(C)c2)c1 |
| 974 | 653 | 44600 | 4.4 | 7.2 | 32.5 | 320 | > 1000 | 1400 | > 1000 | 35400 | Cc1cn(-c2cccc(NC(=O)c3ccc(C)c(Nc4nccc(-c5cccnc5)n4)c3)c2)cn1 |

Reference: ChEMBL document CHEMBL2311368 (Bioorg Med Chem Lett, 2013)
